Earlier results, collected in patent publication US20170065667A1, “METHODS FOR SYNCHRONIZATION OF ESTROUS CYCLES AND OVULATION FOR FIXED TIME ARTIFICIAL INSEMINATION IN CATTLE” (Parnell Technologies Pty Ltd., priority 2014, published 2017).

Test system: lactating dairy cows
Conditions: dinoprost 25 mg, cloprostenol 0.5 mg; cited from earlier work

For `CCCCC[C@H](O)/C=C/[C@@H]1[C@@H](C/C=C\CCCC(=O)O)[C@@H](O)C[C@H]1O` [dinoprost], the “percentage of cows with complete CL regression” value is listed as 80%.
